{"source": "paper PMC9186362", "about": "“Design and biological evaluation of substituted 5,7-dihydro-6H-indolo[2,3-c]quinolin-6-one as novel selective Haspin inhibitors” (Journal of Enzyme Inhibition and Medicinal Chemistry, 2022)", "test_in_all_cases": "LanthaScreen Binding - Eu-anti-GST", "key": {"ALK R1275Q": {"target": "T1, ALK R1275Q (Homo sapiens, UniProt Q9UM73, R1275Q)", "T1 construct": "purchased Life Technologies (SelectScreen service)", "settings": "read-out: Percentage of inhibition", "description": "(§1) We further evaluated the selectivity profile of compound 55 on a larger panel of kinases (SelectScreen Whole Panel, Life Technologies). The inhibition profile of 55, evaluated at 1 μM, is depicted on a dendrogram on Figure 3 where kinases inhibited by a minimum of 80% are shown. A full list of the kinases tested is shown on Table S1 in supplementary information."}, "MAP4K3 (GLK)": {"target": "MAP4K3 (GLK) (Homo sapiens, UniProt Q8IVH8)", "settings": "read-out: Percentage of inhibition", "description": "as §1"}, "IRAK3": {"target": "T2, IRAK3 (Homo sapiens, UniProt Q9Y616)", "T2 construct": "purchased Life Technologies (SelectScreen service)", "settings": "read-out: Percentage of inhibition", "description": "as §1"}, "DYRK2": {"target": "T3, DYRK2 (Homo sapiens, UniProt Q92630)", "T3 construct": "purchased Life Technologies", "settings": "read-out: Percentage of inhibition", "description": "as §1"}, "KIT D816V": {"target": "T4, KIT D816V (Homo sapiens, UniProt P10721, D816V)", "T4 construct": "purchased Life Technologies (SelectScreen service)", "T4 sequence (P10721 26-976 D816V)": "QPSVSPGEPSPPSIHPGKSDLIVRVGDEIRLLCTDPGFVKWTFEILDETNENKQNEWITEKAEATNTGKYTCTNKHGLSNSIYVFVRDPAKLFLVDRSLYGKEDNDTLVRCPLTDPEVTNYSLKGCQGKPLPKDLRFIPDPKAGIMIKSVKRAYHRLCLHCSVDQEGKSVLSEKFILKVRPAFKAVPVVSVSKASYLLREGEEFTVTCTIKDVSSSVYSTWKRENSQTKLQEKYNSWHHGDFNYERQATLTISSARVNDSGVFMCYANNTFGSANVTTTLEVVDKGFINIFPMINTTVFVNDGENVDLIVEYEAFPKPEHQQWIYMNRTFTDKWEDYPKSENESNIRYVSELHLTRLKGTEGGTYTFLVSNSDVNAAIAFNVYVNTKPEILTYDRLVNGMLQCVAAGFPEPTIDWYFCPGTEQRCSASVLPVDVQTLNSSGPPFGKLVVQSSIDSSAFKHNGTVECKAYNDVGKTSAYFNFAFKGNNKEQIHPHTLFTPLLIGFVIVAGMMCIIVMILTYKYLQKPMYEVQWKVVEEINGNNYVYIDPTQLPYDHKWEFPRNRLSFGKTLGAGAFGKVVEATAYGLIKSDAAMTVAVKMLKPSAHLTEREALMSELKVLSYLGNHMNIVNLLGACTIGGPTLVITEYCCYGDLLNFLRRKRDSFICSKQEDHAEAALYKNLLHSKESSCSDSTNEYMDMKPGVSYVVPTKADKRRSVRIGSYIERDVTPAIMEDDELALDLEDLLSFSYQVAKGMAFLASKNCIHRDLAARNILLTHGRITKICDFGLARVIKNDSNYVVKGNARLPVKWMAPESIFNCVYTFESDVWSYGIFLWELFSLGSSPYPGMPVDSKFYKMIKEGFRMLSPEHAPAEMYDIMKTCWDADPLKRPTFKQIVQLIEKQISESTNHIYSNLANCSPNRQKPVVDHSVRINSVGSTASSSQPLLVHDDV", "settings": "read-out: Percentage of inhibition", "description": "as §1"}, "RET M918T": {"target": "T5, RET M918T (Homo sapiens, UniProt P07949, M918T)", "T5 construct": "purchased Life Technologies", "T5 sequence (P07949 29-1114 M918T)": "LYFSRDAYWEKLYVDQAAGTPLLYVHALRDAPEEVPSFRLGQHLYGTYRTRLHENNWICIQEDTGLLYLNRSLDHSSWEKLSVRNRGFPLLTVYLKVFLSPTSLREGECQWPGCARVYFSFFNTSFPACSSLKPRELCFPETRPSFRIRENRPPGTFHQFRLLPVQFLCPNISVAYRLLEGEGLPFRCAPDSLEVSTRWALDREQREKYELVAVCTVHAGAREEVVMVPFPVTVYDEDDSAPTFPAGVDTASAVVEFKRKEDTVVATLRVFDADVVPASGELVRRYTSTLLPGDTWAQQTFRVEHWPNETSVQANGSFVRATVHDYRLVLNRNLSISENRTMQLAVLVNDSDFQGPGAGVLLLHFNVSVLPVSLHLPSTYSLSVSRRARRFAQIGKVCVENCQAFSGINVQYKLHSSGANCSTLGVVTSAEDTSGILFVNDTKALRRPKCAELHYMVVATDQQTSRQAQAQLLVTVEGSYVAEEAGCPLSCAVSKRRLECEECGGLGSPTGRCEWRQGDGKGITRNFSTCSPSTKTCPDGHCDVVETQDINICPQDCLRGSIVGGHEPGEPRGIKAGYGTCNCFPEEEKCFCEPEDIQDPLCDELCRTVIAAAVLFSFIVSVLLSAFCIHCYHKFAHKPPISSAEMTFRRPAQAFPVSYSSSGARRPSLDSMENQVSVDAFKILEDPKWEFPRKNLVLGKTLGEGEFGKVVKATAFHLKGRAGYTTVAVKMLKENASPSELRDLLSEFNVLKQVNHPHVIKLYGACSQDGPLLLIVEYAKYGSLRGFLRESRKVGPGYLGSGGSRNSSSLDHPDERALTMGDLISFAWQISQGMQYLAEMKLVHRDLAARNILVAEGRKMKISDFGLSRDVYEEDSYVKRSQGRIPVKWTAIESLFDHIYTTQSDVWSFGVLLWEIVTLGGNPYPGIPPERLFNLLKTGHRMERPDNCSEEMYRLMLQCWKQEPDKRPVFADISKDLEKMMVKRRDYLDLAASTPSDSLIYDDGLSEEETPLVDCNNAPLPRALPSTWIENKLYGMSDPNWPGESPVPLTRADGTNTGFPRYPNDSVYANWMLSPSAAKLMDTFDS", "settings": "read-out: Percentage of inhibition", "description": "as §1"}, "TNK2 (ACK)": {"target": "TNK2 (ACK) (Homo sapiens, UniProt Q07912)", "settings": "read-out: Percentage of inhibition", "description": "as §1"}, "FLT3 ITD": {"test_system": "FLT3 ITD", "settings": "1 µM", "description": "as §1"}, "MAP3K11 (MLK3)": {"target": "T6, MAP3K11 (MLK3) (Homo sapiens, UniProt Q16584)", "T6 construct": "purchased Life Technologies", "settings": "read-out: Percentage of inhibition", "description": "as §1"}, "SLK": {"target": "T7, SLK (Homo sapiens, UniProt Q9H2G2)", "T7 construct": "purchased Life Technologies", "settings": "read-out: Percentage of inhibition", "description": "as §1"}, "BRSK2": {"target": "T8, BRSK2 (Homo sapiens, UniProt Q8IWQ3)", "T8 construct": "purchased Life Technologies (SelectScreen Whole Panel service)", "settings": "read-out: Percentage of inhibition", "description": "as §1"}, "ACVR2B": {"target": "ACVR2B (Homo sapiens, UniProt Q13705)", "settings": "read-out: Percentage of inhibition", "description": "as §1"}, "ACVR1 (ALK2) R206H": {"target": "ACVR1 (ALK2) R206H (Homo sapiens, UniProt Q04771, R206H)", "settings": "read-out: Percentage of inhibition", "description": "as §1"}, "CDK3/cyclin E1": {"target": "T9, CDK3/cyclin E1 (Homo sapiens, UniProt Q00526)", "T9 construct": "purchased Life Technologies (SelectScreen Whole Panel)", "settings": "read-out: Percentage of inhibition", "description": "as §1"}, "PLK4": {"target": "T10, PLK4 (Homo sapiens, UniProt O00444)", "T10 construct": "purchased Life Technologies (SelectScreen Whole Panel)", "settings": "read-out: Percentage of inhibition", "description": "as §1"}, "STK17A (DRAK1)": {"target": "T11, STK17A (DRAK1) (Homo sapiens, UniProt Q9UEE5)", "T11 construct": "purchased Life Technologies", "settings": "read-out: Percentage of inhibition", "description": "as §1"}, "CAMKK2 (CaMKK beta)": {"target": "T12, CAMKK2 (CaMKK beta) (Homo sapiens, UniProt Q96RR4)", "T12 construct": "purchased Life Technologies (SelectScreen Whole Panel service)", "settings": "read-out: Percentage of inhibition", "description": "as §1"}, "EPHA6": {"target": "EPHA6 (Homo sapiens, UniProt Q9UF33)", "settings": "read-out: Percentage of inhibition", "description": "as §1"}, "ABL1 H396P": {"target": "ABL1 H396P (Homo sapiens, UniProt P00519, H396P)", "settings": "read-out: Percentage of inhibition", "description": "as §1"}, "ERN1": {"target": "T13, ERN1 (Homo sapiens, UniProt O75460)", "T13 construct": "purchased Life Technologies (SelectScreen Whole Panel service)", "settings": "read-out: Percentage of inhibition", "description": "as §1"}, "SIK1": {"target": "T14, SIK1 (Homo sapiens, UniProt P57059)", "T14 construct": "purchased Life Technologies (SelectScreen Whole Panel service)", "settings": "read-out: Percentage of inhibition", "description": "as §1"}, "DDR2 N456S": {"target": "T15, DDR2 N456S (Homo sapiens, UniProt Q16832, N456S)", "T15 construct": "purchased Life Technologies", "T15 sequence (Q16832 22-855 N456S)": "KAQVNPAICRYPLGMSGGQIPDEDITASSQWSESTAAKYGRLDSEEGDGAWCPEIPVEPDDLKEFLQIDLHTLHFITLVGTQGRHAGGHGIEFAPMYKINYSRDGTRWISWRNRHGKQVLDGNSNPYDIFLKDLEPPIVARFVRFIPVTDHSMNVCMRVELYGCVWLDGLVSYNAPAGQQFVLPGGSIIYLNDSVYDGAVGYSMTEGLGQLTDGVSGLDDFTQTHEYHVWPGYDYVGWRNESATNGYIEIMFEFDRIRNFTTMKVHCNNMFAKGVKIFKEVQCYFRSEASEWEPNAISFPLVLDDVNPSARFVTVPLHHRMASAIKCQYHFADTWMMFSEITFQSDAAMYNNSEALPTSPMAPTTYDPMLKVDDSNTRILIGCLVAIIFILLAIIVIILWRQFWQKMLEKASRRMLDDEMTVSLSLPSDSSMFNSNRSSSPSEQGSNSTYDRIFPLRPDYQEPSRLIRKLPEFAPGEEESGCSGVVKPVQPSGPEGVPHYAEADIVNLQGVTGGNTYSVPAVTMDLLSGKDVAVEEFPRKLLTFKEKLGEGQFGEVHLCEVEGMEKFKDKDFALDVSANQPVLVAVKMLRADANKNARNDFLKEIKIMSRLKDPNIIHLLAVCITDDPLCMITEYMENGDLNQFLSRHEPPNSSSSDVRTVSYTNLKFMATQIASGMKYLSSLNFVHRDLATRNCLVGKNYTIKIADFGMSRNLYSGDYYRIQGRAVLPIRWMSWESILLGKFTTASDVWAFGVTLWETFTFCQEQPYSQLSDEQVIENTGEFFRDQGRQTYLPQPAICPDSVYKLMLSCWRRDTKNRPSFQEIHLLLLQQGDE", "settings": "read-out: Percentage of inhibition", "description": "as §1"}, "BRAF V599E": {"target": "T16, BRAF V599E (Homo sapiens, UniProt P15056, V600E)", "T16 construct": "purchased Life Technologies", "T16 sequence (P15056 416-766 V600E limits assumed)": "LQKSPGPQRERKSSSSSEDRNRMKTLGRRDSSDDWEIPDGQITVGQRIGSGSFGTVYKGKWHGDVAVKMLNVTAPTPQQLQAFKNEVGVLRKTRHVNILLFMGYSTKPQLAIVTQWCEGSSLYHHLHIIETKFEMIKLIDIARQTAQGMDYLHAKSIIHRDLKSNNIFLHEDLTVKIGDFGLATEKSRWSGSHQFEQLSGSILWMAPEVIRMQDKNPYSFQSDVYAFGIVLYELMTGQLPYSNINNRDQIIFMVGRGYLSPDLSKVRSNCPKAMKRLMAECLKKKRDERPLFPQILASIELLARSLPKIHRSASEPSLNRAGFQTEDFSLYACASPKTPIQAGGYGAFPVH", "settings": "read-out: Percentage of inhibition", "description": "as §1"}, "KIT A829P": {"target": "T17, KIT A829P (Homo sapiens, UniProt P10721, A829P)", "T17 construct": "purchased Life Technologies (SelectScreen service)", "T17 sequence (P10721 26-976 A829P)": "as the sequence (P10721 26-976 D816V) above, with V791D, A804P counted along it", "settings": "read-out: Percentage of inhibition", "description": "as §1"}, "CDK13/cyclin K": {"target": "T18, CDK13/cyclin K (Homo sapiens, UniProt Q14004)", "T18 construct": "purchased Life Technologies (SelectScreen Whole Panel service)", "settings": "read-out: Percentage of inhibition", "description": "as §1"}, "DDR2": {"target": "T19, DDR2 (Homo sapiens, UniProt Q16832)", "T19 construct": "purchased Life Technologies", "T19 sequence (Q16832 22-855)": "as the sequence (Q16832 22-855 N456S) above, with S435N counted along it", "settings": "read-out: Percentage of inhibition", "description": "as §1"}, "CDK2/cyclin E1": {"target": "CDK2/cyclin E1 (Homo sapiens, UniProt P24941)", "settings": "read-out: Percentage of inhibition", "description": "as §1"}, "MAP3K2 (MEKK2)": {"target": "T20, MAP3K2 (MEKK2) (Homo sapiens, UniProt Q9Y2U5)", "T20 construct": "purchased Life Technologies", "settings": "read-out: Percentage of inhibition", "description": "as §1"}, "MET D1228H": {"target": "MET D1228H (Homo sapiens, UniProt P08581, D1228H)", "sequence (P08581 25-1390 D1228H)": "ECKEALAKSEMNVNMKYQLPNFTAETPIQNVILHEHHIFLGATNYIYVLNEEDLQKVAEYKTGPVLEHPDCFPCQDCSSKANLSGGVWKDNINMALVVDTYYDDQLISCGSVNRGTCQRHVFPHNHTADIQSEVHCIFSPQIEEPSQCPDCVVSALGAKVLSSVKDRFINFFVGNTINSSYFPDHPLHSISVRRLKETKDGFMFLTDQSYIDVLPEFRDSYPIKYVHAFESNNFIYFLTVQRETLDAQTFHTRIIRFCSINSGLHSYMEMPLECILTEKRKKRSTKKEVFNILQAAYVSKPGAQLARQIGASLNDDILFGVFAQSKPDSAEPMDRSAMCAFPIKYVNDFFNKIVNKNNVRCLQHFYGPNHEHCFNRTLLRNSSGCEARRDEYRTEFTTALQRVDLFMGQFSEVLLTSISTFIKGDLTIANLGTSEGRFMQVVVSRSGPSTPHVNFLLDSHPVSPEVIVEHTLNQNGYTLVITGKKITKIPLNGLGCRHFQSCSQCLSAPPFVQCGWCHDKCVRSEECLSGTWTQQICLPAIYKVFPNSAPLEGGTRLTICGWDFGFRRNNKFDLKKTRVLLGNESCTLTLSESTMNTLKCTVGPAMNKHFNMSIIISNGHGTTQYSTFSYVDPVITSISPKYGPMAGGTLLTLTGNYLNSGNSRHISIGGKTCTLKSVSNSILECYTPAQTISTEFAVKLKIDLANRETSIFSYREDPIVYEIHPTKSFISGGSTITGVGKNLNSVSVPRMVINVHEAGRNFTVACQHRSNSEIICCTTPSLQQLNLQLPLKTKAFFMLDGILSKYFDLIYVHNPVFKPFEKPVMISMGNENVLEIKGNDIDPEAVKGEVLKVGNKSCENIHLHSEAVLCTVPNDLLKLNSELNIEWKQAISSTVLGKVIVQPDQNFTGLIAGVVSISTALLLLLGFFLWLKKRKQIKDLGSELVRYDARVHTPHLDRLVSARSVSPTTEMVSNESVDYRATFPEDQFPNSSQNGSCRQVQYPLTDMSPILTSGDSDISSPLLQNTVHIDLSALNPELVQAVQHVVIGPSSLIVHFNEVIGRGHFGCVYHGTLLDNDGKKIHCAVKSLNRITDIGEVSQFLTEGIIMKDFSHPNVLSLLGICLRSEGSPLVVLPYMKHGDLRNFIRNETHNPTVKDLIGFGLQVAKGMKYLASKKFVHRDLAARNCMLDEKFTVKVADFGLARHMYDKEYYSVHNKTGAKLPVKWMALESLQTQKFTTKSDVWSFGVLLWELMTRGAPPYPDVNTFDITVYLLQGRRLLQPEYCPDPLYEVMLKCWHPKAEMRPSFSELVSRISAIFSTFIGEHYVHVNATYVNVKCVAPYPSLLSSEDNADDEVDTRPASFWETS", "settings": "read-out: Percentage of inhibition", "description": "as §1"}, "CDK2/cyclin A1": {"target": "T21, CDK2/cyclin A1 (Homo sapiens, UniProt P24941)", "T21 construct": "purchased Life Technologies (SelectScreen Whole Panel service)", "settings": "read-out: Percentage of inhibition", "description": "as §1"}, "BMPR1A (ALK3)": {"target": "BMPR1A (ALK3) (Homo sapiens, UniProt P36894)", "settings": "read-out: Percentage of inhibition", "description": "as §1"}, "ANKK1": {"target": "T22, ANKK1 (Homo sapiens, UniProt Q8NFD2)", "T22 construct": "purchased Life Technologies (SelectScreen service)", "settings": "read-out: Percentage of inhibition", "description": "as §1"}, "FGFR1 V561M": {"target": "FGFR1 V561M (Homo sapiens, UniProt P11362, V561M)", "settings": "read-out: Percentage of inhibition", "description": "as §1"}, "NLK": {"target": "T23, NLK (Homo sapiens, UniProt Q9UBE8)", "T23 construct": "purchased Life Technologies (SelectScreen Whole Panel service)", "settings": "read-out: Percentage of inhibition", "description": "as §1"}, "TESK1": {"target": "TESK1 (Homo sapiens, UniProt Q15569)", "settings": "read-out: Percentage of inhibition", "description": "as §1"}, "MAP4K1 (HPK1)": {"target": "T24, MAP4K1 (HPK1) (Homo sapiens, UniProt Q92918)", "T24 construct": "purchased Life Technologies (SelectScreen service)", "settings": "read-out: Percentage of inhibition", "description": "as §1"}, "FYN A": {"target": "T25, FYN A (Homo sapiens, UniProt P06241)", "T25 construct": "purchased Life Technologies (SelectScreen Whole Panel service)", "settings": "read-out: Percentage of inhibition", "description": "as §1"}, "CASK": {"target": "T26, CASK (Homo sapiens, UniProt O14936)", "T26 construct": "purchased Life Technologies (SelectScreen Whole Panel)", "settings": "read-out: Percentage of inhibition", "description": "as §1"}, "RET V804M": {"target": "T27, RET V804M (Homo sapiens, UniProt P07949, V804M)", "T27 construct": "purchased Life Technologies (SelectScreen service)", "T27 sequence (P07949 29-1114 V804M)": "as the sequence (P07949 29-1114 M918T) above, with V776M, T890M counted along it", "settings": "read-out: Percentage of inhibition", "description": "as §1"}, "CDK5 (Inactive)": {"target": "CDK5 (Inactive) (Homo sapiens, UniProt Q00535)", "sequence (Q00535 whole entry)": "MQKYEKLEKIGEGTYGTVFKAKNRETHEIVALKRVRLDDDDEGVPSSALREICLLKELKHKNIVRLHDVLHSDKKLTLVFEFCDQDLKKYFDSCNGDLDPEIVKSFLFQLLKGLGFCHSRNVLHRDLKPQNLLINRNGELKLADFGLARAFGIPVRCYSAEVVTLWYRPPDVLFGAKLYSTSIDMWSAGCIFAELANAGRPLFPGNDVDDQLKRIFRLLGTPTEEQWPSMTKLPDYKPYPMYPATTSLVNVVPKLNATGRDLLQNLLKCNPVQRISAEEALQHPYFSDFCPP", "settings": "read-out: Percentage of inhibition", "description": "as §1"}}, "data": [{"smiles": "COc1ccc2[nH]c3c(=O)[nH]c4ccc(O)cc4c3c2c1", "note": "[Compound 55, 2-Hydroxy-10-methoxy-5,7-dihydro-6H-indolo[2,3-c]quinolin-6-one]", "values": [{"measurement": "inhibition at 1 µM", "setting": "ALK R1275Q", "value": 23, "unit": "%"}, {"measurement": "inhibition at 1 µM", "setting": "MAP4K3 (GLK)", "value": 59, "unit": "%"}, {"measurement": "inhibition at 1 µM", "setting": "IRAK3", "value": 77, "unit": "%"}, {"measurement": "inhibition at 1 µM", "setting": "DYRK2", "value": 97, "unit": "%"}, {"measurement": "inhibition at 1 µM", "setting": "KIT D816V", "value": 77, "unit": "%"}, {"measurement": "inhibition at 1 µM", "setting": "RET M918T", "value": 94, "unit": "%"}, {"measurement": "inhibition at 1 µM", "setting": "TNK2 (ACK)", "value": 15, "unit": "%"}, {"measurement": "Percentage of inhibition", "setting": "FLT3 ITD", "value": 97, "unit": "%"}, {"measurement": "inhibition at 1 µM", "setting": "MAP3K11 (MLK3)", "value": 36, "unit": "%"}, {"measurement": "inhibition at 1 µM", "setting": "SLK", "value": 40, "unit": "%"}, {"measurement": "inhibition at 1 µM", "setting": "BRSK2", "value": 15, "unit": "%"}, {"measurement": "inhibition at 1 µM", "setting": "ACVR2B", "value": 21, "unit": "%"}, {"measurement": "inhibition at 1 µM", "setting": "ACVR1 (ALK2) R206H", "value": 14, "unit": "%"}, {"measurement": "inhibition at 1 µM", "setting": "CDK3/cyclin E1", "value": 50, "unit": "%"}, {"measurement": "inhibition at 1 µM", "setting": "PLK4", "value": 50, "unit": "%"}, {"measurement": "inhibition at 1 µM", "setting": "STK17A (DRAK1)", "value": 95, "unit": "%"}, {"measurement": "inhibition at 1 µM", "setting": "CAMKK2 (CaMKK beta)", "value": 10, "unit": "%"}, {"measurement": "inhibition at 1 µM", "setting": "EPHA6", "value": 21, "unit": "%"}, {"measurement": "inhibition at 1 µM", "setting": "ABL1 H396P", "value": 61, "unit": "%"}, {"measurement": "inhibition at 1 µM", "setting": "ERN1", "value": 16, "unit": "%"}, {"measurement": "inhibition at 1 µM", "setting": "SIK1", "value": 19, "unit": "%"}, {"measurement": "inhibition at 1 µM", "setting": "DDR2 N456S", "value": 41, "unit": "%"}, {"measurement": "inhibition at 1 µM", "setting": "BRAF V599E", "value": 6, "unit": "%"}, {"measurement": "inhibition at 1 µM", "setting": "KIT A829P", "value": 76, "unit": "%"}, {"measurement": "inhibition at 1 µM", "setting": "CDK13/cyclin K", "value": 17, "unit": "%"}, {"measurement": "inhibition at 1 µM", "setting": "DDR2", "value": 3, "unit": "%"}, {"measurement": "inhibition at 1 µM", "setting": "CDK2/cyclin E1", "value": 64, "unit": "%"}, {"measurement": "inhibition at 1 µM", "setting": "MAP3K2 (MEKK2)", "value": 42, "unit": "%"}, {"measurement": "inhibition at 1 µM", "setting": "MET D1228H", "value": 14, "unit": "%"}, {"measurement": "inhibition at 1 µM", "setting": "CDK2/cyclin A1", "value": 43, "unit": "%"}, {"measurement": "inhibition at 1 µM", "setting": "BMPR1A (ALK3)", "value": 6, "unit": "%"}, {"measurement": "inhibition at 1 µM", "setting": "ANKK1", "value": 90, "unit": "%"}, {"measurement": "inhibition at 1 µM", "setting": "FGFR1 V561M", "value": 60, "unit": "%"}, {"measurement": "inhibition at 1 µM", "setting": "NLK", "value": 15, "unit": "%"}, {"measurement": "inhibition at 1 µM", "setting": "TESK1", "value": 15, "unit": "%"}, {"measurement": "inhibition at 1 µM", "setting": "MAP4K1 (HPK1)", "value": 81, "unit": "%"}, {"measurement": "inhibition at 1 µM", "setting": "FYN A", "value": 45, "unit": "%"}, {"measurement": "inhibition at 1 µM", "setting": "CASK", "value": -3, "unit": "%"}, {"measurement": "inhibition at 1 µM", "setting": "RET V804M", "value": 88, "unit": "%"}, {"measurement": "inhibition at 1 µM", "setting": "CDK5 (Inactive)", "value": 21, "unit": "%"}]}]}
